Assay results: US9676757B2, “Heterocyclic compounds as NaV channel inhibitors and uses thereof” (Merck Patent GmbH, priority 2014, dated 2017)
Like-named read-outs stand apart in the source and are kept apart here.

Molecular target: Nav1.6 (Homo sapiens, UniProt Q9UQD0)
Test: Nav two-pulse protocol, IonWorks Quattro electrophysiology
Assay type: cell-based
Details: -120 mV to 0 mV, compound incubated 300 s
Procedure: Compound Plate Preparation
Supplied compounds were sent as Assay Ready Plates, with 2 μL per well of compound in DMSO at 300× the final assay concentrations as described above and in the project proposal. All assay plates are stored at in a −80° C. freezer.
On the day of the assay, 198 μL of external solution was added to the appropriate assay plate and mixed thoroughly. This provided a 1:100 dilution. A further 1:3 dilution occurred upon addition to the cells in the IonWorks, giving a 1:300 dilution in total.
On each assay plate, at least 8 wells were reserved for vehicle control (0.3% DMSO) and at least 8 wells for each positive control specific to the cell line tested. The positive controls were tested in an 8-point dose response with 3-fold dilutions to determine an IC50 value for each run. The positive control compounds are outlined below.
Ion Channel Positive Control & Concentrations
Nav1.6/1.2 Lidocaine: 8, 3-fold dilutions starting at 100 μM
Electrophysiological Recording Solutions
The solutions for recording currents were are follows:
Amphotericin B was used to obtain electrical access to the cell interior at a final concentration of 200 μg/ml in internal recording solution.
Experimental Protocols & Data Analysis
Nav currents were evoked by stepping from a holding potential of −120 mV to 0 mV for 2.5 s (pulse 1), followed by a 5 ms inter-pulse interval, and stepping from a holding potential of −120 mV to 0 mV for 20 ms (pulse 2). The voltage protocol was applied (Pre), compounds added, incubated for 300 seconds, and the voltage protocol was applied a final time (Post) on the IonWorks Quattro.
The parameters measured were the maximum inward current evoked on stepping to 0 mV from the 1st and 2nd pulse. All data were filtered for seal quality, seal drop, and current amplitude. The peak current amplitude (Peak) was calculated before (Pre) and after (Post) compound addition to the amount of block was assessed by dividing the Post-compound current amplitude by the Pre-compound current amplitude. These procedures were implemented for the 1st and 2nd pulse.

Chain of Nav1.6 (Q9UQD0 whole entry): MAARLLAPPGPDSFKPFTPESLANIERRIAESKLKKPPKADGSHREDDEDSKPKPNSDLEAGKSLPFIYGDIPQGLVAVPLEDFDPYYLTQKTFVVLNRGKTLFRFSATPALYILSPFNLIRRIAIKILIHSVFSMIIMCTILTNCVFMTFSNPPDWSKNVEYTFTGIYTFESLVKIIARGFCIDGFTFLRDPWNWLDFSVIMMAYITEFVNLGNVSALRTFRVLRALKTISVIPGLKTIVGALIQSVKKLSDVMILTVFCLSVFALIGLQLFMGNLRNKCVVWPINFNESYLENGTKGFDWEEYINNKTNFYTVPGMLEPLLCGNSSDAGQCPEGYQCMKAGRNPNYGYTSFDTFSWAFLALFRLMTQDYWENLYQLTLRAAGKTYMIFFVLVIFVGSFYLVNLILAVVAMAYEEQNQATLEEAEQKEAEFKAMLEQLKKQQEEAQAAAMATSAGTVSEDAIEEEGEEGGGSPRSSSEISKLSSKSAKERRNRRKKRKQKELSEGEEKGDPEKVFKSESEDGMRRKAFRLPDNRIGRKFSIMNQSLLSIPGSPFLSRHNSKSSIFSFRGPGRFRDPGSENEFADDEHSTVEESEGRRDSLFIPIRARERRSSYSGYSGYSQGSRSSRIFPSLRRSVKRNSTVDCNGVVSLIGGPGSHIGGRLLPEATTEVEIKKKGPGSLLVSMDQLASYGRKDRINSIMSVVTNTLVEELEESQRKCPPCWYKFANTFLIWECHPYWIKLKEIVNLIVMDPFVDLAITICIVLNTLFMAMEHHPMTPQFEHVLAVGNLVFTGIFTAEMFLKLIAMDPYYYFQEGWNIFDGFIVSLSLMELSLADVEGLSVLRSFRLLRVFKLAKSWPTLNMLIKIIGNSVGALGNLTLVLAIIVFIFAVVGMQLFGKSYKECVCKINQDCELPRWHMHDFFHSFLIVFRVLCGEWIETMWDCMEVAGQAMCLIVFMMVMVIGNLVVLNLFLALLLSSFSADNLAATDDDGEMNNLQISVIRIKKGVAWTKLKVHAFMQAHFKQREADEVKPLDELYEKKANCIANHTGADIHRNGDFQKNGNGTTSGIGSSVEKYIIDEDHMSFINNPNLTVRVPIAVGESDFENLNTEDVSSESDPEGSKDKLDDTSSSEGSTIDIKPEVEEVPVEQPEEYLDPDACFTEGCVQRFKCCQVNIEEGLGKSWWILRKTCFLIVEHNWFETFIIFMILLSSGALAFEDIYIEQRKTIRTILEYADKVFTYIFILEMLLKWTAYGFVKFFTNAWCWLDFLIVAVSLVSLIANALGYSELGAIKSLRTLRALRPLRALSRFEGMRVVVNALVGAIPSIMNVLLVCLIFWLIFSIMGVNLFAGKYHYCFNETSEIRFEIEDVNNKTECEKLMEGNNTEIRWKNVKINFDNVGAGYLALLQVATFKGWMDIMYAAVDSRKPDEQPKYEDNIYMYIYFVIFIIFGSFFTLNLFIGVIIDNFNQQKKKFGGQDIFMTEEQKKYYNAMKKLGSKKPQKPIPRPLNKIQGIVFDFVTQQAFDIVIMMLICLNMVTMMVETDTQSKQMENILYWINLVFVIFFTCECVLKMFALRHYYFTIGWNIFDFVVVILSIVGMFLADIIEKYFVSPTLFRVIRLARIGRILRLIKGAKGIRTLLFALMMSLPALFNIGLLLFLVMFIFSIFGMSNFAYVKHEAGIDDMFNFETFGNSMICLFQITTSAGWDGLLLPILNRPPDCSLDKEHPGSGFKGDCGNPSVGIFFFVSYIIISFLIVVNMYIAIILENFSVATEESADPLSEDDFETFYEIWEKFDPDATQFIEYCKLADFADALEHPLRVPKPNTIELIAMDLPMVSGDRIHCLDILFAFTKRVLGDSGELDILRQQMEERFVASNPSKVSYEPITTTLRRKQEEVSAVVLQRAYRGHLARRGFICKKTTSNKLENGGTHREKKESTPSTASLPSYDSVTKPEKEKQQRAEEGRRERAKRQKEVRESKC

Row | IC50 (read-out: Nav1.6 Tonic) | IC50 (read-out: Nav1.6 inac) | Structure (SMILES)
1 | > 20 µM | < 1 µM | Cc1ccc(Oc2cccc(CN3CCC(C(=O)NCc4ccccn4)C3)c2)cc1 (centres unmarked) [Compound 1, 1-(3-p-Tolyloxy-benzyl)-pyrrolidine-3-carboxylic acid (pyridin-2-ylmethyl)-amide]
2 | > 20 µM | 1 to 5 µM | COc1cccc(Oc2cccc(CN3CCC(C(=O)NCc4ccccn4)C3)c2)c1 (centres unmarked) [Compound 2, 1-[3-(3-Methoxy-phenoxy)-benzyl]-pyrrolidine-3-carboxylic acid (pyridin-2-ylmethyl)-amide]
3 | > 20 µM | 1 to 5 µM | O=C(NCc1ccccn1)C1CCN(Cc2cccc(Oc3ccc(F)c(F)c3)c2)C1 (centres unmarked) [Compound 3, 1-[3-(3,4-Difluoro-phenoxy)-benzyl]-pyrrolidine-3-carboxylic acid (pyridin-2-ylmethyl)-amide]
4 | 10 to 20 µM | < 1 µM | O=C(NCc1ccccn1)C1CCN(Cc2cccc(Oc3ccccn3)c2)C1 (centres unmarked) [Compound 4, 1-[3-(Pyridin-2-yloxy)-benzyl]-pyrrolidine-3-carboxylic acid (pyridin-2-ylmethyl)-amide]
5 | > 20 µM | < 1 µM | O=C(NCc1ccccn1)C1CCN(Cc2cccc(Oc3cccc(C(F)(F)F)c3)c2)C1 (centres unmarked) [Compound 5, 1-[3-(3-Trifluoromethyl-phenoxy)-benzyl]-pyrrolidine-3-carboxylic acid (pyridin-2-ylmethyl)-amide]
6 | > 20 µM | > 5 µM | COc1ccc(Oc2cccc(CN3CCC(C(=O)NCc4ccccn4)C3)c2)cc1 (centres unmarked) [Compound 6, 1-[3-(4-Methoxy-phenoxy)-benzyl]-pyrrolidine-3-carboxylic acid (pyridin-2-ylmethyl)-amide]
7 | > 20 µM | < 1 µM | COc1ccccc1Oc1cccc(CN2CCC(C(=O)NCc3ccccn3)C2)c1 (centres unmarked) [Compound 7, 1-[3-(2-Methoxy-phenoxy)-benzyl]-pyrrolidine-3-carboxylic acid (pyridin-2-ylmethyl)-amide]
8 | > 20 µM | < 1 µM | O=C(NCc1ccccn1)C1CCN(Cc2cccc(Oc3ccc(F)cc3F)c2)C1 (centres unmarked) [Compound 8, 1-[3-(2,4-Difluoro-phenoxy)-benzyl]-pyrrolidine-3-carboxylic acid (pyridin-2-ylmethyl)-amide]
9 | > 20 µM | < 1 µM | Cc1cc(C)cc(Oc2cccc(CN3CCC(C(=O)NCc4ccccn4)C3)c2)c1 (stereo not drawn) [Compound 9, l-[3-(3,5-Dimethyl-phenoxy)-benzyl]-pyrrolidine-3-carboxylic acid (pyridin-2-ylmethyl)-amide]
10 | 10 to 20 µM | 1 to 5 µM | Cc1ccc(Oc2cccc(CN3CCC(C(=O)NCc4ccccn4)C3)c2)cc1C (centres unmarked) [Compound 10, 1-[3-(3,4-Dimethyl-phenoxy)-benzyl]-pyrrolidine-3-carboxylic acid (pyridin-2-ylmethyl)-amide]
11 | 10 to 20 µM | < 1 µM | O=C(NCc1ccccn1)C1CCN(Cc2cccc(Oc3cccc(F)c3)c2)C1 (centres unmarked) [Compound 11, 1-[3-(3-Fluoro-phenoxy)-benzyl]-pyrrolidine-3-carboxylic acid (pyridin-2-ylmethyl)-amide]
12 | > 20 µM | 1 to 5 µM | O=C(NCc1ccccn1)C1CCN(Cc2cccc(Oc3cccnc3)c2)C1 (centres unmarked) [Compound 12, 1-[3-(Pyridin-3-yloxy)-benzyl]-pyrrolidine-3-carboxylic acid (pyridin-2-ylmethyl)-amide]
13 | > 20 µM | < 1 µM | O=C(NCc1ccccn1)C1CCN(Cc2cccc(Oc3ccc(F)cc3)c2)C1 (centres unmarked) [Compound 13, 1-[3-(4-Fluoro-phenoxy)-benzyl]-pyrrolidine-3-carboxylic acid (pyridin-2-ylmethyl)-amide]
14 | > 20 µM | > 5 µM | O=C(NCc1ccccn1)C1CCN(Cc2cccc(Oc3ccccc3F)c2)C1 (centres unmarked) [Compound 14, 1-[3-(2-Fluoro-phenoxy)-benzyl]-pyrrolidine-3-carboxylic acid (pyridin-2-ylmethyl)-amide]
15 | > 20 µM | > 5 µM | O=C(NCc1ccccn1)C1CCN(Cc2ccc(F)c(Oc3ccccc3)c2)C1 (centres unmarked) [Compound 15, 1-(4-Fluoro-3-phenoxy-benzyl)-pyrrolidine-3-carboxylic acid (pyridin-2-ylmethyl)-amide]
16 | > 20 µM | > 5 µM | Cc1cncc(Oc2cccc(CN3CCC(C(=O)NCc4ccccn4)C3)c2)n1 (centres unmarked) [Compound 18, 1-[3-(6-Methyl-pyrazin-2-yloxy)-benzyl]-pyrrolidine-3-carboxylic acid (pyridin-2-ylmethyl)-amide]
17 | > 20 µM | 1 to 5 µM | COc1ccc(Oc2cccc(CN3CCC(C(=O)NCc4ccccn4)C3)n2)cc1 (centres unmarked) [Compound 19, 1-[6-(4-Methoxy-phenoxy)-pyridin-2-ylmethyl]-pyrrolidine-3-carboxylic acid (pyridin-2-ylmethyl)-amide]
18 | > 20 µM | > 5 µM | O=C(NCc1ccccn1)C1CCN(Cc2cccc(Oc3ccc(F)cc3)n2)C1 (centres unmarked) [Compound 20, 1-[6-(4-Fluoro-phenoxy)-pyridin-2-ylmethyl]-pyrrolidine-3-carboxylic acid (pyridin-2-ylmethyl)-amide]
19 | > 20 µM | 1 to 5 µM | Cc1cccc(Oc2cccc(CN3CCC(F)(C(=O)NCc4ccccn4)C3)c2)c1 (centres unmarked) [Compound 21, 3-Fluoro-1-(3-m-tolyloxy-benzyl)-pyrrolidine-3-carboxylic acid (pyridin-2-ylmethyl)-amide]
20 | > 20 µM | 1 to 5 µM | Cc1ccc(Oc2cccc(CN3CCC(F)(C(=O)NCc4ccccn4)C3)c2)cc1 (centres unmarked) [Compound 22, 3-Fluoro-1-(3-p-tolyloxy-benzyl)-pyrrolidine-3-carboxylic acid (pyridin-2-ylmethyl)-amide]
21 | > 20 µM | 1 to 5 µM | COc1cccc(Oc2cccc(CN3CCC(F)(C(=O)NCc4ccccn4)C3)c2)c1 (centres unmarked) [Compound 23, 3-Fluoro-1-[3-(3-methoxy-phenoxy)-benzyl]-pyrrolidine-3-carboxylic acid (pyridin-2-ylmethyl)-amide]
22 | > 20 µM | 1 to 5 µM | O=C(NCc1ccccn1)C1(F)CCN(Cc2cccc(Oc3ccc(F)c(F)c3)c2)C1 (centres unmarked) [Compound 24, 1-[3-(3,4-Difluoro-phenoxy)-benzyl]-3-fluoro-pyrrolidine-3-carboxylic acid (pyridin-2-ylmethyl)-amide]
23 | > 20 µM | 1 to 5 µM | O=C(NCc1ccccn1)C1(F)CCN(Cc2cccc(Oc3cccc(C(F)(F)F)c3)c2)C1 (centres unmarked) [Compound 25, 3-Fluoro-1-[3-(3-trifluoromethyl-phenoxy)-benzyl]-pyrrolidine-3-carboxylic acid (pyridin-2-ylmethyl)-amide]
24 | > 20 µM | 1 to 5 µM | CC(C)c1ccc(Oc2cccc(CN3CCC(F)(C(=O)NCc4ccccn4)C3)c2)cc1 (centres unmarked) [Compound 26, 3-Fluoro-1-[3-(4-isopropyl-phenoxy)-benzyl]-pyrrolidine-3-carboxylic acid (pyridin-2-ylmethyl)-amide]
25 | > 20 µM | > 5 µM | CC1(C(=O)NCc2ccccn2)CCN(Cc2cccc(Oc3ncccn3)c2)C1 (centres unmarked) [Compound 27, 3-Methyl-1-[3-(pyrimidin-2-yloxy)-benzyl]-pyrolidine-3-carboxylic acid (pyridin-2-ylmethyl)-amide]
26 | 10 to 20 µM | 1 to 5 µM | O=C(NCc1ccccn1)C1CCN(Cc2cccc(-c3ccccc3)c2)C1 (centres unmarked) [Compound 29, 1-Biphenyl-3-ylmethyl-pyrrolidine-3-carboxylic acid (pyridin-2-ylmethyl)-amide]
27 | > 20 µM | < 1 µM | O=C(NCc1ccccn1)C1CCN(Cc2cccc(OCC(F)(F)F)c2)C1 (centres unmarked) [Compound 30, 1-[3-(2,2,2-Trifluoro-ethoxy)-benzyl]-pyrrolidine-3-carboxylic acid (pyridin-2-ylmethyl)-amide]
28 | > 20 µM | 1 to 5 µM | O=C(NCc1ccccn1)C1CCN(Cc2ccc3c(c2)OC(F)(F)O3)C1 (centres unmarked) [Compound 31, 1-(2,2-Difluoro-benzo[1,3]dioxol-5-ylmethyl)-pyrrolidine-3-carboxylic acid (pyridin-2-ylmethyl)-amide]
29 | > 20 µM | 1 to 5 µM | CC1(C)Cc2cc(CN3CCC(C(=O)NCc4ccccn4)C3)ccc2O1 (centres unmarked) [Compound 32, 1-(2,2-Dimethyl-2,3-dihydro-benzofuran-5-ylmethyl)-pyrrolidine-3-carboxylic acid (pyridin-2-ylmethyl)-amide]
30 | > 20 µM | 1 to 5 µM | CC1(C)Oc2ccc(CN3CCC(C(=O)NCc4ccccn4)C3)cc2O1 (centres unmarked) [Compound 33, 1-(2,2-Dimethyl-benzo[1,3]dioxol-5-ylmethyl)-pyrrolidine-3-carboxylic acid (pyridin-2-ylmethyl)-amide]

Row | Structure (SMILES) | IC50 (read-out: Nav1.6 Tonic) | IC50 (read-out: Nav1.6 inac)
31 | CC(C)COc1cccc(CN2CCC(Cn3ccnc3)C2)c1 (centres unmarked) [Compound 28, 1-[1-(3-Isobutoxy-benzyl)-pyrrolidin-3-ylmethyl]-1H-imidazole] | > 20 µM | < 1 µM
